ChEMBL document CHEMBL1833972 (Bioorg Med Chem Lett, 2011)
Converted amounts (≈) assume the structure as drawn.

Columns and labels:
in vitro [1] = settings: human, liver microsomes
[2] = Lipophilicity, log D of the compound; type: physicochemical; settings: octanol/water
in vitro [3] = settings: rat, liver microsomes
[4] = Solubility of the compound; type: physicochemical
in vitro [5] = settings: rat, cytosol
[6] = Thermodynamic solubility of compound at physiological pH; type: physicochemical; settings: read-out: Therm_solubility

Row | SMILES | microsomal CLint (in vitro [1]) [µL/min/mg] | logD [2] | microsomal CLint (in vitro [3]) [µL/min/mg] | solubility [4] | half-life (in vitro [5]) [h] | solubility thermodynamic [6] [µg/mL]
1 | CN1CCN(CCN(C)c2ccc(Cn3c(=O)[nH]c4c(N)nc(C(F)(F)F)cc43)cn2)CC1 | 25 | 1.5 | 15 | – | – | –
2 | Nc1nc(C(F)(F)F)cc2c1[nH]c(=O)n2Cc1ccc(NCCN2CCCC2)nc1 | 8.5 | 0.8 | < 8.5 | – | – | –
3 | CCN(CC)CCN(C)c1ccc(Cn2c(=O)[nH]c3c(N)nc(C(F)(F)F)cc32)cn1 | 24 | 1.3 | 11 | – | – | –
4 | CN(C)CCN(C)c1ccc(Cn2c(=O)[nH]c3c(N)nc(C(F)(F)F)cc32)cn1 | 16 | 1.2 | 11 | – | – | –
5 | CN1CCN(CC2CCCN2c2cc(Cn3c(=O)[nH]c4c(N)nc(C(F)(F)F)cc43)ccn2)CC1 (stereo unspecified) | – | – | – | soluble | – | –
6 | Nc1nc(C(F)(F)F)cc2c1[nH]c(=O)n2Cc1ccc(NCc2ccccc2)nc1 | < 8 | 1.8 | 16 | – | 4.17 | –
7 | Nc1nc(C(F)(F)F)cc2c1[nH]c(=O)n2Cc1cccnc1N1CCC[C@H]1CN1CCCC1 | – | – | – | soluble | – | –
8 | CN1CCN(CC2CCCN2c2ccc(Cn3c(=O)[nH]c4c(N)nc(C(F)(F)F)cc43)cn2)CC1 (stereo unspecified) | – | – | – | soluble | – | –
9 | Nc1nc(C(F)(F)F)cc2c1[nH]c(=O)n2Cc1ccc(NCCN2CCCCC2)nc1 | 13 | 1.3 | 16 | – | – | –
10 | Nc1nc(C(F)(F)F)cc2c1[nH]c(=O)n2Cc1ccc(N2CCC[C@H]2CN2CCCC2)nc1 | – | – | – | soluble | – | –
11 | CN(CCN1CCCCC1)c1ccc(Cn2c(=O)[nH]c3c(N)nc(C(F)(F)F)cc32)cn1 | 25 | 1.8 | 13 | – | – | –
12 | Nc1nc(C(F)(F)F)cc2c1[nH]c(=O)n2Cc1ccnc(N2CCC[C@H]2CN2CCCC2)c1 | – | – | – | soluble | – | –
13 | CN(C)CCN1CCN(c2ccc(Cn3c(=O)[nH]c4c(N)nc(C(F)(F)F)cc43)cn2)CC1 | < 8 | 0.9 | < 8.5 | – | – | –
14 | Nc1nc(C(F)(F)F)cc2c1[nH]c(=O)n2Cc1ccc(OCCN2CCCC2)nc1 | 10 | 1.2 | 9 | soluble | – | –
15 | CN1CCN(CC2CCCN2c2ncccc2Cn2c(=O)[nH]c3c(N)nc(C(F)(F)F)cc32)CC1 (stereo unspecified) | – | – | – | soluble | – | –
16 | Nc1nc(C(F)(F)F)cc2c1[nH]c(=O)n2Cc1ccnc(OCCN2CCCC2)c1 | – | – | – | soluble | – | –

Further lines, results first:

Row | microsomal CLint (in vitro [1]) [µL/min/mg] | logD [2] | microsomal CLint (in vitro [3]) [µL/min/mg] | solubility [4] | half-life (in vitro [5]) [h] | solubility thermodynamic [6] [µg/mL] | SMILES
17 | – | – | – | soluble | – | – | Nc1nc(C(F)(F)F)cc2c1[nH]c(=O)n2Cc1cccnc1OCCN1CCCC1
18 | – | – | – | soluble | – | – | COCCCN1CCN(c2ccc(Cn3c(=O)[nH]c4c(N)nc(C(F)(F)F)cc43)cn2)CC1
19 | – | – | – | soluble | – | – | COCCNc1ccc(Cn2c(=O)[nH]c3c(N)nc(C(F)(F)F)cc32)cn1
20 | – | – | – | soluble | – | – | COCCN1CCN(c2cc(Cn3c(=O)[nH]c4c(N)nc(C(F)(F)F)cc43)ccn2)CC1
21 | 22 | 1.2 | 24 | – | – | – | CN(C)CCOc1ccc(Cn2c(=O)[nH]c3c(N)nc(C(F)(F)F)cc32)cn1
22 | – | – | – | soluble | – | – | COCCCN1CCN(c2cc(Cn3c(=O)[nH]c4c(N)nc(C(F)(F)F)cc43)ccn2)CC1
23 | – | – | – | soluble | – | – | COCCCN1CCN(c2ncccc2Cn2c(=O)[nH]c3c(N)nc(C(F)(F)F)cc32)CC1
24 | 17 | 2.3 | 9 | soluble | – | – | COCCN1CCN(c2ccc(Cn3c(=O)[nH]c4c(N)nc(C(F)(F)F)cc43)cn2)CC1
25 | – | – | – | soluble | – | – | COCCNc1cc(Cn2c(=O)[nH]c3c(N)nc(C(F)(F)F)cc32)ccn1
26 | – | – | – | soluble | – | – | COCCN1CCN(c2ncccc2Cn2c(=O)[nH]c3c(N)nc(C(F)(F)F)cc32)CC1
27 | < 8 | 1.6 | < 8.5 | – | 3.27 | – | Nc1nc(C(F)(F)F)cc2c1[nH]c(=O)n2Cc1ccc(NCCO)nc1
28 | – | – | – | soluble | – | – | COCCNc1ncccc1Cn1c(=O)[nH]c2c(N)nc(C(F)(F)F)cc21
29 | 9 | 0.7 | 16 | – | 6.17 | 483 (≈ 1220 µM) | CN(C)CCNc1ccc(Cn2c(=O)[nH]c3c(N)nc(C(F)(F)F)cc32)cn1
